According to article doi:10.1101/2025.09.04.674280 (bioRxiv, 2025):

Experiments:
DgSTING = assay: EMSA titration with […]-labeled ligand; type: binding, Diaphanoeca grandis
SdSTING = assay: EMSA titration with […]-labeled ligand; type: binding, Stephanoeca diplocostata

- Kd (DgSTING): 590 nM
- Kd (SdSTING): 1750 nM
Compound: Nc1nc2c(ncn2[C@@H]2O[C@@H]3COP(=O)(O)O[C@H]4[C@@H](O)[C@H](n5cnc6c(=O)[nH]c(N)nc65)O[C@@H]4COP(=O)(O)O[C@H]3[C@H]2O)c(=O)[nH]1 [3′3′-c-di-GMP]
